Like-named read-outs stand apart in the source and are kept apart here.
Tests used:
Y. pseudotuberculosis = experiment: microbe, parasite or virus in culture; conditions: Yersinia pseudotuberculosis, J774, read-out: % Cytotoxicity
P. aeruginosa = P. aeruginosa cytotoxicity whole cell assay (J774 cells, LDH release); conditions: relative to vehicle treated cells infected with wild type P. aeruginosa
LcrF (VirF) = LcrF (VirF) (Yersinia pestis, UniProt P28808); experiment: biochemical; format: binding, Y. pseudotuberculosis
ExsA = target: T1, ExsA (Pseudomonas aeruginosa, UniProt P26993); experiment: Chemiluminescence-based ExsA-DNA binding assay; parameters: species or system P. aeruginosa; conditions: Table 7, cell-free system; read-out: ExsA EC50
T1 construct: made in house
T1 sequence (P26993 1-278): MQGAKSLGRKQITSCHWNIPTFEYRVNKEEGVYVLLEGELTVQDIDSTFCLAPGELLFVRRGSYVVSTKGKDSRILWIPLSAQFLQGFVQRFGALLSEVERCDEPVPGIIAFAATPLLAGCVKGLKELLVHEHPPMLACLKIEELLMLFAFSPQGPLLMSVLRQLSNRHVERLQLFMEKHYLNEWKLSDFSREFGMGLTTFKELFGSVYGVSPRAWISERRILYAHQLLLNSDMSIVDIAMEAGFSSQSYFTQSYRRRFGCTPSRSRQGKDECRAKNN

[1] = EC50 for inhibition of LcrF(VirF)-DNA binding
[2] = read-out: EC50 for inhibition of LcrF(VirF)-DNA binding

Chain of LcrF (VirF) (P28808 whole entry, looked up): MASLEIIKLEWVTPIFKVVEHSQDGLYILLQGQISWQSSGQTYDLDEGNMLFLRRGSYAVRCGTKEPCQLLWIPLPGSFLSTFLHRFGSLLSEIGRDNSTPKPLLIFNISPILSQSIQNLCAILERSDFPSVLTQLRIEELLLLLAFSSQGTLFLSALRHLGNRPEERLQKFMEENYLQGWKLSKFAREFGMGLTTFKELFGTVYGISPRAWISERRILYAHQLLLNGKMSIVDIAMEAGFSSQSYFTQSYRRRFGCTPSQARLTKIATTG

Row | SMILES | activity at 50 µg/mL (Y. pseudotuberculosis) [%] | Cytotoxicity at 50 μg/mL Pseudomonas (P. aeruginosa) | EC50 (LcrF (VirF); [1]) [µM] | EC50 (LcrF (VirF); [2]) [µM] | EC50 (ExsA) [µM]
1 | CC(=O)c1ccc(C(=O)Nc2ccc(-c3nc4ccc(C#N)cc4n3O)cc2)cc1 [AA] | < 75 | ** (reduced P. aeruginosa cytotoxicity below 75% of untreated, wild type levels at 50 mg/mL) | > 25 |  | 
2 | COc1ccc(/C=C/C(=O)Nc2ccc(-c3nc4ccc([N+](=O)[O-])cc4n3O)cc2)c(OC)c1 [AK] | 75 to 99 | * (reduced P. aeruginosa cytotoxicity to 99-75% of untreated, wild type levels at 50 mg/mL) | > 25 |  | 
3 | O=C(/C=C/c1ccc(-n2ccnc2)cc1)Nc1ccc(-c2nc3ccc([N+](=O)[O-])cc3n2O)cc1 [AM, (E)-N-[4-(1-Hydroxy-6-nitro-1H-benzoimidazol-2-yl)-phenyl]-3-(4-imidazol-1-yl-phenyl)-acrylamide] | 75 to 99 | ** (reduced P. aeruginosa cytotoxicity below 75% of untreated, wild type levels at 50 mg/mL) |  | > 25 | 
4 | N#Cc1ccc(C(=O)Nc2ccc(-c3nc4ccc(C#N)cc4n3O)cc2)cc1 [CO] | 75 to 99 | * (reduced P. aeruginosa cytotoxicity to 99-75% of untreated, wild type levels at 50 mg/mL) |  |  | 
5 | Cc1ccc(/C=C/C(=O)Nc2ccc(-c3nc4ccc(C#N)cc4n3O)cc2)cc1 [CP] | 75 to 99 | * (reduced P. aeruginosa cytotoxicity to 99-75% of untreated, wild type levels at 50 mg/mL) | 10 to 25 |  | 
6 | O=C(Nc1ccc(-c2nc3ccc([N+](=O)[O-])cc3n2O)cc1)/C(=C/c1ccccc1)c1ccccc1 [CQ] | < 75 | ** (reduced P. aeruginosa cytotoxicity below 75% of untreated, wild type levels at 50 mg/mL) |  |  | 10 to 25
7 | O=C(/C=C/c1ccc(F)cc1)Nc1ccc(-c2nc3ccc([N+](=O)[O-])cc3n2OCP(=O)(O)O)cc1 [DW, (2-{4-[(E)-3-(4-Fluoro-phenyl)-acrloylamino]-phenyl}-6-nitro-benzoimidazol-1-yloxymethyl)-phosphonic acid] | 75 to 99 | * (reduced P. aeruginosa cytotoxicity to 99-75% of untreated, wild type levels at 50 mg/mL) |  |  | 
8 | O=C(/C=C/c1ccc(F)cc1)Nc1ccc(-c2nc3ccc([N+](=O)[O-])cc3n2O)cn1 [DY] | < 75 | * (reduced P. aeruginosa cytotoxicity to 99-75% of untreated, wild type levels at 50 mg/mL) |  |  | 
9 | O=C(/C=C/c1ccc(F)cc1F)Nc1ccc(-c2nc3ccc([N+](=O)[O-])cc3n2O)nc1 [EA] | < 75 | * (reduced P. aeruginosa cytotoxicity to 99-75% of untreated, wild type levels at 50 mg/mL) |  |  | 
10 | O=C(/C=C/c1ccc(F)cc1F)Nc1ccc(-c2nc3ccc([N+](=O)[O-])cc3n2O)cn1 [EB] | < 75 | * (reduced P. aeruginosa cytotoxicity to 99-75% of untreated, wild type levels at 50 mg/mL) |  |  | 
11 | CCOP(=O)(Cc1cc(/C=C/C(=O)Nc2ccc(-c3nc4ccc([N+](=O)[O-])cc4n3O)cc2)ccc1F)OCC [EF] | < 75 | * (reduced P. aeruginosa cytotoxicity to 99-75% of untreated, wild type levels at 50 mg/mL) |  |  | 
12 | O=C(/C=C/c1ccc(F)cc1)Nc1ccc(-c2nc3ccc([N+](=O)[O-])cc3n2O)c(F)c1 [EI] | 75 to 99 | * (reduced P. aeruginosa cytotoxicity to 99-75% of untreated, wild type levels at 50 mg/mL) |  |  | 10 to 25
13 | Cc1cc2nc(-c3ccc(NC(=O)/C=C/c4ccc(F)cc4)cc3)n(O)c2cc1[N+](=O)[O-] [EO, (E)-3-(4-Fluoro-phenyl)-N-[4-(1-hydroxy-5-methyl-6-nitro-1H-benzoimidazol-2-yl)-phenyl]-acrylamide] | 75 to 99 | ** (reduced P. aeruginosa cytotoxicity below 75% of untreated, wild type levels at 50 mg/mL) |  |  | 
14 | CC(=O)c1ccc(C(=O)Nc2ccc(-c3nc4cc(C)c([N+](=O)[O-])cc4n3O)cc2)cc1 [EQ] | < 75 | * (reduced P. aeruginosa cytotoxicity to 99-75% of untreated, wild type levels at 50 mg/mL) |  |  | 
15 | O=C(/C=C/c1ccc(F)cc1)Nc1ccc(-c2nc3cc(F)c([N+](=O)[O-])cc3n2O)cc1 [FA, N-[4-(5-Fluoro-1-hydroxy-6-nitro-1H-benzoimidazol-2-yl)-phenyl]-3-(4-fluoro-cinnamyl)-amide] |  | ** (reduced P. aeruginosa cytotoxicity below 75% of untreated, wild type levels at 50 mg/mL) | > 25 |  | 10 to 25
16 | CN(C)C(=O)c1ccc(C(=O)Nc2ccc(-c3nc4ccc([N+](=O)[O-])cc4n3O)cc2)cc1 [FB] | < 75 | * (reduced P. aeruginosa cytotoxicity to 99-75% of untreated, wild type levels at 50 mg/mL) |  |  | > 25

Row | SMILES | activity at 50 µg/mL (Y. pseudotuberculosis) [%] | Cytotoxicity at 50 μg/mL Pseudomonas (P. aeruginosa) | EC50 (LcrF (VirF); [1]) [µM] | EC50 (LcrF (VirF); [2]) [µM] | EC50 (ExsA) [µM]
17 | O=C(/C=C/c1ccc(F)cc1)Nc1ccc(-c2nc3ccc(-n4ccnc4)cc3n2O)cc1 [FT] |  | * (reduced P. aeruginosa cytotoxicity to 99-75% of untreated, wild type levels at 50 mg/mL) | > 25 |  | 10 to 25
18 | CC(=O)c1ccc(/C=C/C(=O)Nc2ccc(-c3nc4cc(OCCN5CCOCC5)c([N+](=O)[O-])cc4n3O)cc2)cc1 [FV] |  | ** (reduced P. aeruginosa cytotoxicity below 75% of untreated, wild type levels at 50 mg/mL) |  | > 25 | > 25
19 | CC(=O)c1ccc(/C=C/C(=O)Nc2ccc(-c3nc4ccc(C#N)cc4n3O)cc2)cc1 [FW] |  | ** (reduced P. aeruginosa cytotoxicity below 75% of untreated, wild type levels at 50 mg/mL) | 10 to 25 |  | 10 to 25
20 | O=C(/C=C/c1ccc(F)cc1)Nc1ccc(-c2nc3ccc(-n4cccn4)cc3n2O)cc1 [FX, (E)-3-(4-Fluoro-phenyl)-N-[4-(1-hydroxy-6-pyrazol-1-yl-1H-benzoimidazol-2-yl)-phenyl]-acrylamide] |  | * (reduced P. aeruginosa cytotoxicity to 99-75% of untreated, wild type levels at 50 mg/mL) | > 25 |  | > 25
21 | CC(=O)c1ccc(C(=O)Nc2ccc(-c3nc4ccc(-n5cccn5)cc4n3O)cc2)cc1 [FY, 4-Acetyl-N-[4-(1-hdroxyy-6-pyrazol-1-yl-1H-benzoimidazol-2-yl)-phenyl]-benzamide] |  | * (reduced P. aeruginosa cytotoxicity to 99-75% of untreated, wild type levels at 50 mg/mL) |  | > 25 | > 25
22 | N#Cc1ccc2nc(-c3ccc(NC(=O)c4ccc(-n5ccnc5)cc4)cc3)n(O)c2c1 [GA] |  | ** (reduced P. aeruginosa cytotoxicity below 75% of untreated, wild type levels at 50 mg/mL) | 10 to 25 |  | 10 to 25
23 | CC(=O)c1ccc(/C=C/C(=O)Nc2ccc(-c3nc4ccc(C(=O)O)cc4n3O)cc2)cc1 [GL] |  | ** (reduced P. aeruginosa cytotoxicity below 75% of untreated, wild type levels at 50 mg/mL) |  |  | > 25
24 | CC(=O)c1ccc(/C=C/C(=O)Nc2ccc(-c3nc4ccc([N+](=O)[O-])cc4n3O)cc2)cn1 [GN] |  | ** (reduced P. aeruginosa cytotoxicity below 75% of untreated, wild type levels at 50 mg/mL) |  |  | < 10
25 | CC(=O)c1ccc(/C=C/C(=O)N(CC(=O)O)c2ccc(-c3nc4ccc(C#N)cc4n3O)cc2)cc1 [GO, {[(E)-3-(4-Acetyl-phenyl)-acryloyl]-[4-(6-cyano-1-hydroxy-1H-benzoimidazol-2-yl)-phenyl]-amino}-acetic acid] |  | * (reduced P. aeruginosa cytotoxicity to 99-75% of untreated, wild type levels at 50 mg/mL) |  |  | > 25
26 | CC(=O)c1ccc(/C=C/C(=O)N(CC(N)=O)c2ccc(-c3nc4ccc([N+](=O)[O-])cc4n3O)cc2)cc1 [GP, (E)-3-(4-Acetyl-phenyl)-N-carbamoylmethyl-N-[4-(1-hydroxy-6-nitro-1H-benzoimidazol-2-yl)-phenyl]-acrylamide] |  | * (reduced P. aeruginosa cytotoxicity to 99-75% of untreated, wild type levels at 50 mg/mL) |  |  | > 25
27 | CC(=O)c1ccc(/C=C/C(=O)N(CC(N)=O)c2ccc(-c3nc4ccc(C#N)cc4n3O)cc2)cc1 [GQ] |  | * (reduced P. aeruginosa cytotoxicity to 99-75% of untreated, wild type levels at 50 mg/mL) |  |  | > 25
28 | CC(=O)c1ccc(/C=C/C(=O)Nc2ccc(-c3nc4ccc(F)cc4n3O)cc2)cc1 [GR] |  | * (reduced P. aeruginosa cytotoxicity to 99-75% of untreated, wild type levels at 50 mg/mL) |  |  | 10 to 25
29 | O=C(/C=C/c1ccc(-n2ccnc2)nc1)Nc1ccc(-c2nc3ccc([N+](=O)[O-])cc3n2O)cc1 [GS] |  | ** (reduced P. aeruginosa cytotoxicity below 75% of untreated, wild type levels at 50 mg/mL) |  |  | 10 to 25
30 | O=C(/C=C/c1ccc(C(F)(F)F)nc1)Nc1ccc(-c2nc3ccc([N+](=O)[O-])cc3n2O)cc1 [GT] |  | ** (reduced P. aeruginosa cytotoxicity below 75% of untreated, wild type levels at 50 mg/mL) |  |  | < 10
31 | CS(=O)(=O)c1ccc(/C=C/C(=O)Nc2ccc(-c3nc4ccc([N+](=O)[O-])cc4n3O)cc2)cc1 [GU] |  | ** (reduced P. aeruginosa cytotoxicity below 75% of untreated, wild type levels at 50 mg/mL) |  |  | < 10
32 | N#Cc1ccc2nc(-c3ccc(NC(=O)/C=C/c4ccc(-n5ccnc5)nc4)cc3)n(O)c2c1 [GV] |  | ** (reduced P. aeruginosa cytotoxicity below 75% of untreated, wild type levels at 50 mg/mL) |  |  | > 25
